Series [1] concerns the target human MCH-1 receptor (Homo sapiens (Human), UniProt Q99705). Put plainly: Binding Assay for Human Melanin-Concentrating Hormone (MCH-1) Receptor. Conditions: radioligand displacement, membranes from CHO-K1 cells expressing human MCH-1 receptor; Ki from IC50 by Cheng Prusoff equation; read-out: MCH1 Ki. The method, boiled down:
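Membranes from CHO-K1 cells stably expressing human MCH-1 incubated 60 min at 25 °C with 1.4 nM tritiated indazolyl-pyridinone radioligand in 50 mM Tris-HCl pH 7.4. Bound counts by filtration and scintillation; IC50 and nH by Hill fit, Ki by Cheng–Prusoff.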
For orientation: In a radioligand displacement assay an active substance lowers the binding of a labelled ligand.

Data on 17 compounds can be found in US8637501B2, “Azinone-substituted azepino[b]indole and pyrido-pyrrolo-azepine MCH-1 antagonists, methods of making, and use thereof” (Albany Molecular Research, Inc., priority 2009, dated 2014).

human MCH-1 receptor, sequence (Q99705 whole entry): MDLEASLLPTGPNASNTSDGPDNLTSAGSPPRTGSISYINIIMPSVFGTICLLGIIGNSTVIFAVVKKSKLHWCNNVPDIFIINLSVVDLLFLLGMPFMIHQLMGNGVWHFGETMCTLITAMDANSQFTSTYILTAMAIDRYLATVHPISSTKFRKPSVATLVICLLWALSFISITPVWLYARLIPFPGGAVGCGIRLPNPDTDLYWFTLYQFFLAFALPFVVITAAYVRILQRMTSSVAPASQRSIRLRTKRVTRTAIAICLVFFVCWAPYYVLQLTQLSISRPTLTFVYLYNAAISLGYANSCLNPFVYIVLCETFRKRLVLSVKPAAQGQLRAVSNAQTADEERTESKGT

On to `Cl.Cn1c2c(c3ccc(-n4ccc(OCc5ccc(F)cc5F)cc4=O)cc31)CNCCC2` [Example 66, 4-(2,4-Difluorobenzyloxy)-1-(6-methyl-1,2,3,4,5,6-hexahydroazepino[4,3-b]indol-8-yl)pyridin-2(1H)-one hydrochloride], for which the melting point – broadly, the temperature, or range, at which the solid turns liquid – is 272 to 280 °C. In series [1], the Ki (commonly a dissociation constant, usually derived from enzyme kinetics or from competition with a known ligand) is 7.3 nM.

For the compound `Cl.Cn1c2c(c3ccc(-n4ccc(OCc5ncc(Cl)cc5Cl)cc4=O)cc31)CNCCC2` [Example 67, 4-((3,5-Dichloropyridin-2-yl)methoxy)-1-(6-methyl-1,2,3,4,5,6-hexahydroazepino[4,3-b]indol-8-yl)pyridin-2(1H)-one dihydrochloride], the melting point fell in the range of 251 to 256 °C. Also, in series [1], the inhibitory constant (Ki) was determined as 22 nM.

On to `Cl.Cn1c2c(c3ccc(-n4ccc(OCc5ccc(Cl)cc5F)cc4=O)cc31)CNCCC2` [Example 68, 4-(4-Chloro-2-fluorobenzyloxy)-1-(6-methyl-1,2,3,4,5,6-hexahydroazepino[4,3-b]indol-8-yl)pyridin-2(1H)-one hydrochloride], for which the melting point lay within 191 to 200 °C. Also, in series [1], the Ki worked out at 8.2 nM.

In the case of `Cl.Cn1c2c(c3ccc(-n4ccc(OCc5ccc(F)cn5)cc4=O)cc31)CN(C1CCC1)CCC2` [Example 72, 1-(2-Cyclobutyl-6-methyl-1,2,3,4,5,6-hexahydroazepino[4,3-b]indol-8-yl)-4-((5-fluoropyridin-2-yl)methoxy)pyridin-2(1H)-one hydrochloride], the melting point was in the range of 260 to 265 °C. Also, the inhibitory constant (Ki) in series [1] was determined as 7.5 nM.

`CN1CCCc2c(c3ccc(N4CCN(CCc5ccc(F)cc5)CC4=O)cc3n2C)C1.Cl` [Example 74, 1-(2,6-Dimethyl-1,2,3,4,5,6-hexahydroazepino[4,3-b]indol-8-yl)-4-(4-fluorophenethyl)piperazin-2-one hydrochloride] registered a melting point of 211 to 220 °C. Also, the Ki in series [1] amounted to 10 nM.

Regarding `Cl.Cn1c2c(c3ccc(N4CCN(CCc5ccc(F)cc5)CC4=O)cc31)CN(C1CCC1)CCC2` [Example 75, 1-(2-Cyclobutyl-6-methyl-1,2,3,4,5,6-hexahydroazepino[4,3-b]indol-8-yl)-4-(4-fluorophenethyl)piperazin-2-one hydrochloride], the melting point lay in the range of 194 to 205 °C. Also, the Ki in series [1] came out at 14 nM.

`CCN1CCCc2c(c3ccc(N4CCN(CCc5ccc(F)cc5)CC4=O)cc3n2C)C1.Cl` [Example 76, 1-(2-Ethyl-6-methyl-1,2,3,4,5,6-hexahydroazepino[4,3-b]indol-8-yl)-4-(4-fluorophenethyl)piperazin-2-one hydrochloride] displayed a melting point of 190 to 205 °C. In series [1], the Ki is 9.8 nM.

As to `Cl.Cn1c2c(c3ccc(-n4ccc(OCc5ccccc5)cc4=O)nc31)CCNCC2` [Example 77, 4-(Benzyloxy)-1-(10-methyl-5,6,7,8,9,10-hexahydropyrido[3′,2′:4,5]pyrrolo[2,3-d]azepin-2-yl)pyridin-2(1H)-one hydrochloride], the melting point is 180 to 185 °C (dec.). Moreover, the Ki in series [1] is 11 nM.

Take `Cl.Cn1c2c(c3ccc(-n4ccc(-c5ccc(C(F)(F)F)nc5)cc4=O)nc31)CCNCC2` [Example 78, 1-(10-Methyl-5,6,7,8,9,10-hexahydropyrido[3′,2′:4,5]pyrrolo[2,3-d]azepin-2-yl)-4-(6-(trifluoromethyl)pyridin-3-yl)pyridin-2(1H)-one hydrochloride]: the melting point was 320 to 325 °C (dec.). In series [1], the Ki was found to be 29 nM.

Consider `Cl.Cn1c2c(c3ccc(-n4ccc(-c5ccc(C(F)(F)F)nn5)cc4=O)nc31)CCNCC2` [Example 79, 1-(10-Methyl-5,6,7,8,9,10-hexahydropyrido[3′,2′:4,5]pyrrolo[2,3-d]azepin-2-yl)-4-(6-(trifluoromethyl)pyridazin-3-yl)pyridin-2(1H)-one hydrochloride], for which the melting point is 300 to 305 °C (dec.). For the same compound, the Ki in series [1] stood at 235 nM.

As for `Cl.Cn1c2c(c3ccc(-n4ccc(-c5ccc(C(F)(F)F)cn5)cc4=O)nc31)CCNCC2` [Example 80, 1-(10-Methyl-5,6,7,8,9,10-hexahydropyrido[3′,2′:4,5]pyrrolo[2,3-d]azepin-2-yl)-4-(5-(trifluoromethyl)pyridin-2-yl)pyridin-2(1H)-one hydrochloride], the melting point is 310 to 314 °C (dec.). The Ki in series [1] came out at 69 nM.

Regarding `Cl.Cn1c2c(c3ccc(-n4ccc(OCc5ccc(F)cn5)cc4=O)nc31)CCNCC2` [Example 81, 4-((5-Fluoropyridin-2-yl)methoxy)-1-(10-methyl-5,6,7,8,9,10-hexahydropyrido[3′,2′:4,5]pyrrolo[2,3-d]azepin-2-yl)pyridin-2(1H)-one hydrochloride], the melting point is 238 to 240 °C. Besides, the Ki in series [1] turned out to be 33 nM.

Take `Cl.Cn1c2c(c3ccc(-n4ncc(OCc5ccc(F)cn5)cc4=O)nc31)CCNCC2` [Example 82, 5-((5-Fluoropyridin-2-yl)methoxy)-2-(10-methyl-5,6,7,8,9,10-hexahydropyrido[3′,2′:4,5]pyrrolo[2,3-d]azepin-2-yl)pyridazin-3(2H)-one hydrochloride]: the melting point is 226 to 230 °C (dec.). The Ki in series [1] came out at 53 nM.

Turning to `Cl.Cn1c2c(c3ccc(-n4ccc(-c5ccc(C(F)(F)F)nc5)cc4=O)nc31)CNCCC2` [Example 89, 1-(10-Methyl-5,6,7,8,9,10-hexahydropyrido[3′,2′:4,5]pyrrolo[3,2-c]azepin-2-yl)-4-(6-(trifluoromethyl)pyridin-3-yl)pyridin-2(1H)-one hydrochloride], the melting point fell in the range of 308 to 312 °C. Also, the inhibitory constant (Ki) in series [1] worked out at 15 nM.

`Cl.Cn1c2c(c3ccc(-n4ccc(OCc5ccccc5)cc4=O)nc31)CNCCC2` [Example 90, 4-(Benzyloxy)-1-(10-methyl-5,6,7,8,9,10-hexahydropyrido[3′,2′:4,5]pyrrolo[3,2-c]azepin-2-yl)pyridin-2(1H)-one hydrochloride]: the melting point lay within 328 to 332 °C. Moreover, the Ki in series [1] worked out at 6.4 nM.

The compound `Cl.Cn1c2c(c3ccc(-n4ccc(OCc5ncc(F)cc5F)cc4=O)cc31)CCNCC2` [Example 102, 4-((3,5-Difluoropyridin-2-yl)methoxy)-1-(6-methyl-1,2,3,4,5,6-hexahydroazepino[4,5-b]indol-8-yl)pyridin-2(1H)-one hydrochloride] came in with a melting point of 215 to 225 °C. Further, the Ki in series [1] is 22 nM.

In the case of `Cl.Cn1c2c(c3ccc(-n4ccc(OCc5ncc(F)cc5F)cc4=O)cc31)CNCCC2` [Example 106, 4-((3,5-Difluoropyridin-2-yl)methoxy)-1-(6-methyl-1,2,3,4,5,6-hexahydroazepino[4,3-b]indol-8-yl)pyridin-2(1H)-one hydrochloride], the melting point lay within 180 to 190 °C. Besides, in series [1], the Ki turned out to be 18 nM.
